Reference: article PMC8464809, “Anticancer and Structure Activity Relationship of Non-Symmetrical Choline Kinase Inhibitors” (Pharmaceutics, 2021)

Tests used:
[1] = target: T1, human ChoKα1 (Homo sapiens, UniProt P35790); experiment: Inhibition of purified ChoKα1: incorporation of 14C from [methyl-14C]choline into phosphocholine; type: biochemical; conditions: purified ChoKα1, 1 mM choline, 10 mM ATP, 37 °C, 10 min; read-out: IC50 hChoKα1
T1 construct: made in house
Description: The effect of compounds 3a–h and 4a–h on ChoKα1 was assayed in purified ChoKα1 as previously described, by determining the rate of incorporation of ^14C from [methyl-^14C]choline into phosphocholine, both in the absence (control) or presence of different inhibitor concentrations. Briefly, 20 ng of purified ChoKα1 were incubated with 1 mM [methyl-^14C]choline (4500 dpm/nmol) in 100 mM Tris-HCl (pH 8.5), 10 mM MgCl2, 10 mM ATP, and incubated at 37 °C for 10 min. The reaction was stopped by immersing the reaction tubes in boiling water for 3 min. Aliquots of the reaction were applied to the origin of silica gel plates in the presence of phosphocholine (0.1 mg) and choline (0.1 mg) as carriers. The chromatography was developed in methanol/0.6% NaCl/28% NH4OH in water (50:50:5, v/v/v) as a solvent, and phosphocholine was visualized under exposure to iodine vapor. The corresponding spot was scraped and transferred to scintillation vials for measurement of radioactivity by a Beckman 6000-TA (Madrid, Spain) liquid-scintillation counter. The 50% inhibitory concentrations (IC50 value) were determined from the % activity of the enzyme at different concentrations of synthetic inhibitor using a sigmoidal dose-response curve (the ED50plus v1.0 software).

[2] = system: HT-29 cells; experiment: Antiproliferative MTT assay, HT-29; type: cell-based; conditions: Homo sapiens, 72 h
Description: (§1) Human cervix carcinoma (HeLa) and human breast cancer (MCF-7) were grown in the DMEM medium (Gibco, Milan, Italy). B-acute lymphoblastic leukemia (RS4;11), T-acute lymphoblastic leukemia (CCRF-CEM and Jurkat), human promyelocytic cells (HL-60), and human colon adenocarcinoma (HT-29) cells were grown in RPMI medium (Gibco, Milan, Italy). Both media were supplemented with 115 units/mL of penicillin G (Gibco, Milan, Italy), 115 μg/mL of streptomycin (Invitrogen, Milan, Italy), and 10% FBS (Invitrogen, Milan, Italy). Cell lines were tested for mycoplasma contamination every 6 months by the RT-PCR analysis. Stock solutions (10 mM) of the different compounds were obtained by dissolving them in DMSO. Individual wells of 96-well tissue-culture microtiter plates were inoculated with 100 μL of complete medium containing 5 × 10^3 adherent cells or 25 × 10^3 leukemia cells. The plates were incubated at 37 °C in a humidified 5% CO2 incubator for 18 h prior to the experiments. After medium removal, 100 μL of fresh medium containing the test compound at different concentrations was added to each well and incubated at 37 °C for 72 h.

[3] = system: HeLa cells; experiment: Antiproliferative MTT assay, HeLa; type: cell-based; conditions: Homo sapiens, 72 h
Description: as §1

[4] = system: MCF-7 cells; experiment: Antiproliferative MTT assay, MCF-7; type: cell-based; conditions: Homo sapiens, MCF7, 72 h
Description: as §1

[5] = system: CCRF-CEM cells; experiment: Antiproliferative MTT assay, CCRF-CEM; type: cell-based; conditions: Homo sapiens, 72 h
Description: as §1

[6] = system: HL-60 cells; experiment: Antiproliferative MTT assay, HL-60; type: cell-based, human; conditions: for GI50: Homo sapiens, HL-60, 72 h, MTT
Description: as §1

[7] = system: RS4;11 cells; experiment: Antiproliferative MTT assay, RS4;11; type: cell-based; conditions: Homo sapiens, 72 h
Description: as §1

[8] = Cytotoxicity in resting peripheral blood lymphocytes (MTT); type: cell-based; conditions: human, PBL not stimulated with PHA, healthy donors, read-out: GI50 PBLresting
Description: (§2) Additional experiments were conducted with peripheral blood lymphocytes (PBL) from healthy donors obtained as described previously. For cytotoxicity evaluations in proliferating PBL cultures, non-adherent cells were resuspended at 5 × 10^5 cells/mL in a growth medium containing 2.5 µg/mL PHA (Irvine Scientific). Different concentrations of the test compounds were added, and viability was determined 72 h later by the MTT test. For cytotoxicity evaluations in resting PBL cultures, non-adherent cells were resuspended (5 × 10^5 cells/mL) and treated for 72 h with the test compounds, as described above.

[9] = Cytotoxicity in PHA-stimulated peripheral blood lymphocytes (MTT); type: cell-based; conditions: human, PBL stimulated with PHA, healthy donors, read-out: GI50 PBLPHA
Description: as §2

[10] = system: Jurkat cells; experiment: Apoptosis by annexin-V/PI flow cytometry; type: cell-based, human; conditions: after 24 h of treatment, concentration dependent
Description: Jurkat cells were treated with the test compounds and after different times stained with both PI, to stain DNA, and annexin V-fluorescein isothiocyanate, to stain membrane PS exposed on the cell surface, following the instructions of the manufacturer (Roche Diagnostics) of the Annexin-V-Fluos reagent.

[11] = system: HT-29, HeLa, MCF-7, CCRF-CEM, HL-60, and RS4;11cells; experiment: Antiproliferative MTT assay, panel of six human tumor cell lines; type: cell-based; conditions: HL-60, RS4;11, 72 h
Description: as §1

[12] = system: choline uptake in HepG2 cells; experiment: Choline uptake assay; type: cell-based; conditions: Homo sapiens, 10 min preincubation with the compound
Description: Choline uptake was determined as previously reported. Briefly, HepG2 cells (200,000 cells/well) were incubated for 10 min at 37 °C either in a medium containing different concentrations of ChoKα1 inhibitors or only with the medium as controls. The medium was then removed and the cells were immediately exposed to a medium containing [methyl-^14C]choline (16 μM, 31 Ci/mol) for 10 min at 37 °C. The incorporation of choline was stopped by medium aspiration followed by two washes with ice-cold PBS containing 580 μM choline. The cells were solubilized in NaOH 0.1 N and an aliquot was used to determine the total amount of radiolabel taken up by the cells.

T1 sequence (P35790 whole entry): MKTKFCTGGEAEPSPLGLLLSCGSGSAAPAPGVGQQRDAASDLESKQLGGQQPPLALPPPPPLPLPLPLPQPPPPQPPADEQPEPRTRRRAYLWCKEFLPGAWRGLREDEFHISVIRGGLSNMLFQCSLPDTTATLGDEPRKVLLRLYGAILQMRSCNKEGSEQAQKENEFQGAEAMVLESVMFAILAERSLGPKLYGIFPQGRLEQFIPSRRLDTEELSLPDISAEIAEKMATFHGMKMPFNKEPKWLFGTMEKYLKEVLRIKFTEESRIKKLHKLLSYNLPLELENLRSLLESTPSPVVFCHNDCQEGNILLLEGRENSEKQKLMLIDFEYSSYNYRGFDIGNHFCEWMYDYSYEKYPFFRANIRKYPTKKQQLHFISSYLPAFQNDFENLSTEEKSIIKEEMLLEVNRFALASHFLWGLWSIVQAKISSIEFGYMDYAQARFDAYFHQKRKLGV

Compound | IC50 [1] [µM] | GI50 [2] [µM] | GI50 [3] [µM] | GI50 [4] [µM] | GI50 [5] [µM] | GI50 [6] [µM] | GI50 [7] [µM] | fold more potent than MN-48b ([6]; against HL-60 leukemic cells, MN-48b ref 23) [fold] | GI50 at 72 h [8] [µM] | GI50 at 72 h [9] [µM] | apoptotic cells (annexin-V/PI) [10] | GI50 values, range over six cell lines [11] [nM] | IC50 [12] [µM]
Nc1cccc(OCc2ccc(C[n+]3ccc(N4CCCC4)cc3)cc2)c1 [Compound 3a] | > 50 | 36 ± 7.4 | 4.8 ± 0.58 | 22.8 ± 4.3 | 3.4 ± 0.7 | 4.8 ± 0.4 | 16.8 ± 4.8 | – | – | – | – | – | –
Nc1cccc(OCc2ccc(-c3ccc(C[n+]4ccc(N5CCCC5)cc4)cc3)cc2)c1 [Compound 3b] | 17.5 ± 1.24 | – | – | – | – | – | – | – | – | – | – | – | –
Nc1cccc(OCc2ccc(CCc3ccc(C[n+]4ccc(N5CCCC5)cc4)cc3)cc2)c1 [Compound 3c] | 8.56 ± 0.94 | 0.63 ± 0.14 | 0.068 ± 0.028 | 0.3 ± 0.1 | 0.03 ± 0.003 | 0.011 ± 0.005 | 0.15 ± 0.012 | 30 | > 10 | > 10 | significant increase of apoptotic cells | 630 to 11 | –
Nc1cccc(OCc2ccc(CCCCc3ccc(C[n+]4ccc(N5CCCC5)cc4)cc3)cc2)c1 [Compound 3d] | 6.79 ± 0.47 | 0.58 ± 0.17 | 0.16 ± 0.048 | 0.5 ± 0.2 | 0.015 ± 0.005 | 0.12 ± 0.091 | 0.29 ± 0.053 | – | – | – | – | – | 15.8 ± 0.24
CN(C)c1cc[n+](Cc2ccc(COc3cccc(N)c3)cc2)cc1 [Compound 3e] | 6.33 ± 0.8 | 26.1 ± 6.7 | 8.2 ± 2.4 | 23.6 ± 5.1 | 1.2 ± 0.5 | 38.7 ± 6.2 | 53.6 ± 13.4 | – | – | – | – | – | –
CN(C)c1cc[n+](Cc2ccc(-c3ccc(COc4cccc(N)c4)cc3)cc2)cc1 [Compound 3f] | 6.39 ± 0.46 | 4.4 ± 0.7 | 4.2 ± 0.5 | 7.6 ± 1.6 | 0.54 ± 0.21 | 2.4 ± 0.7 | 2 ± 0.5 | – | – | – | – | – | –
CN(C)c1cc[n+](Cc2ccc(CCc3ccc(COc4cccc(N)c4)cc3)cc2)cc1 [Compound 3g] | 4.29 ± 0.12 | 2.2 ± 0.9 | 1.2 ± 0.2 | 4.3 ± 0.9 | 0.4 ± 0.26 | 1.6 ± 0.9 | 2.6 ± 0.2 | – | – | – | – | – | –
CN(C)c1cc[n+](Cc2ccc(CCCCc3ccc(COc4cccc(N)c4)cc3)cc2)cc1 [Compound 3h] | 7.01 ± 0.13 | – | – | – | – | – | – | – | – | – | – | – | –
Oc1cccc(NCc2ccc(C[n+]3ccc(N4CCCC4)cc3)cc2)c1 [Compound 4a] | 3.34 ± 0.34 | 49.7 ± 11.4 | 12.8 ± 2.6 | 17.8 ± 5.3 | 7.3 ± 2.5 | 4.1 ± 1.2 | 24.5 ± 2.9 | – | – | – | – | – | –
Oc1cccc(NCc2ccc(-c3ccc(C[n+]4ccc(N5CCCC5)cc4)cc3)cc2)c1 [Compound 4b] | 3.85 ± 0.1 | 6.6 ± 2.3 | 2.1 ± 0.4 | 4.4 ± 0.5 | 0.5 ± 0.1 | 1.1 ± 0.3 | 2.8 ± 0.6 | – | – | – | – | – | –
Oc1cccc(NCc2ccc(CCc3ccc(C[n+]4ccc(N5CCCC5)cc4)cc3)cc2)c1 [Compound 4c] | 3.83 ± 0.91 | 5.3 ± 2.1 | 0.86 ± 0.26 | 1.7 ± 0.4 | 0.14 ± 0.03 | 0.065 ± 0.023 | 0.46 ± 0.061 | – | – | – | – | – | –
Oc1cccc(NCc2ccc(CCCCc3ccc(C[n+]4ccc(N5CCCC5)cc4)cc3)cc2)c1 [Compound 4d] | 3.36 ± 0.17 | 5.8 ± 1.9 | 0.39 ± 0.12 | 2.8 ± 0.5 | 0.086 ± 0.03 | 0.33 ± 0.074 | 0.71 ± 0.16 | – | – | – | – | – | –
CN(C)c1cc[n+](Cc2ccc(CNc3cccc(O)c3)cc2)cc1 [Compound 4e] | 2.82 ± 0.16 | 23.8 ± 8.2 | 12.4 ± 1.8 | 6.7 ± 1.5 | 8.4 ± 1.6 | 4 ± 0.9 | 31 ± 2.6 | – | – | – | – | – | –
CN(C)c1cc[n+](Cc2ccc(-c3ccc(CNc4cccc(O)c4)cc3)cc2)cc1 [Compound 4f] | – | 13.2 ± 5 | 3.6 ± 0.4 | 5 ± 1 | 1.1 ± 0.4 | 1.3 ± 0.4 | 3.7 ± 0.4 | – | 7.6 ± 1.1 | 3.6 ± 0.8 | significant increase of apoptotic cells | – | 3.5 ± 0.07
CN(C)c1cc[n+](Cc2ccc(CCc3ccc(CNc4cccc(O)c4)cc3)cc2)cc1 [Compound 4g] | 3.66 ± 0.11 | 5.2 ± 1.7 | 1.7 ± 0.2 | 2.4 ± 0.2 | 0.7 ± 0.1 | 0.25 ± 0.066 | 1.1 ± 0.3 | – | – | – | – | – | –
CN(C)c1cc[n+](Cc2ccc(CCCCc3ccc(CNc4cccc(O)c4)cc3)cc2)cc1 [Compound 4h] | – | 3.6 ± 1.4 | 0.7 ± 0.1 | 2.2 ± 1 | 0.16 ± 0.034 | 0.37 ± 0.079 | 0.5 ± 0.08 | – | – | – | – | – | –
